Entries after “also recorded” stand apart in the source; their conditions may differ. Where two headings read alike, the source gives them in different places. Starred links: 1 amine or outer side, 2 acyl side, 3 side chain; linkers in the order of their positions; H or OH if unused. Positions of bridges follow the written chain, without caps; N, C: chain ends. Non-standard residues stand in square brackets, D forms with d. Residues, ends and D or L forms follow the SMILES beside them. Chains are numbered I, II in the order given. Actinocin(9to1) = Cc1c2oc3c(C)ccc(C(=O)[*:1])c3nc-2c(C(=O)[*:2])c(N)c1=O; NMeV = CN[C@H](C(=O)O)C(C)C; Sar = CNCC(=O)O Bounds are passed on as bounds.

Assay [1] relates to U-937 cells. The experiment in a line: Protection assays using small molecule inhibitors (protection from Raptinal, AV/PI). The format is cell-based, Human. The conditions noted are these: U-937 cells pretreated 2 hours with agent (concentrations of Table 3), then 10 μM Raptinal 2 hours. Here is the method:
Protection Assays Using Small Molecule Inhibitors.
. The cells were then co-treated with Raptinal at 10 μM for 2 hours prior to analysis by propidium iodide/FITC-annexin V staining and flow cytometry.

Assay [2] deals with U-937 cells. Put plainly: Annexin V/PI cell viability analysis.
Assay [3] concerns cancer cell lines (HL-60, SK-MEL-5, U-937). The experiment in a line: Initial screens against cancer cell lines. The format is cell-based, Human. To be noted: cancer cells treated 1 hour, extensive washing to remove compound, read at 24-hour mark.
The test system of assay [4] is U-937 cells. The assay is classed as cell-based, Human. To be noted: 20 minute treatment, dihydroethidium, flow cytometry. Here is the method: Measurement of Cellular ROS Production.
U-937 cells (1 mL of 5×10^5 cells/mL) in Hank's buffered salt solution (HBSS) containing 5 mM glucose were treated with DMSO, 2 or 10 μM Raptinal, 10 μM thapsigargin, 100 μM etoposide (1% DMSO final) and incubated in the presence of 5 μM dihydroethidium a 37° C., 5% CO2 incubator for 20 minutes. […]. The levels of ethidium were assessed by flow cytometry. Live cells were analyzed based on gating on the forward and side scatter properties and the geometric mean of ethidium staining was determined using the software FCS Express.

Assay [5] deals with adherent cell lines (HOS, H1993, SK-MEL-5, MIA PaCa-2). The experiment in a line: Adherent cell lines: cell death by AV/PI staining and immunoblots. The format is cell-based, Human. To be noted: adherent cell lines; 10 μM (FIG. 1G).
The subject of assay [6] is isolated mitochondria (U-937 cells). The experiment in a line: In vitro cytochrome c release from isolated mitochondria. The format is biochemical, Human. To be noted: respiring and non-respiring conditions, 30 min, Western blot. How it is done:
In Vitro Cytochrome c Release from Isolated Mitochondria.
U-937 cells (120×10^6) were washed twice in PBS and resuspended in 800 μL ice-cold lysis buffer (50 mM HEPES, 5 mM DTT, 5 mM PMSF, 25 mM MgCl2, protease cocktail inhibitor, pH 7.5) and the cells were passed through a 26 gauge needle 26 times using a 1 mL syringe until >95% cells were lysed as determined by trypan blue. Isolation buffer (0.25 M sucrose in lysis buffer pH 7.5) was added to the lysed cells (2.4 mL) and mixed by inversion. Debris was removed by centrifugation (500×g. 10 min at 4° C.) and the mitochondria in the supernatant were pelleted by centrifugation (10000×g, 5 min at 4° C.). The mitochondrial pellet was resuspended in washing buffer (2 mL of 50 mM HEPES, 250 mM KCl, 25 mM EDTA, pH 7.5) and incubated on ice for 2 min and centrifuged (12500×g, 5 min). The mitochondrial pellet was resuspended in either non-respiration (300 μL of 50 mM HEPES, 5 mM DTT, 5 mM PMSF, 25 mM MgCl2, protease inhibitor, 250 mM KCl, 25 mM EDTA, pH 7.5) or respiration buffer (300 μL of 50 mM HEPES, […], 5 mM ATP, 0.4 mM ADP, 25 mM sodium succinate, 10 mM potassium phosphate dibasic, pH 7.5). […]

[7] abbreviates: U-937 cells, 10 μM, time course AV/PI, based on data in FIG. 1F.

Turning to `CC[C@@H]1/C=C/C=C/C[C@H](C)[C@H](O)[C@](C)(O)C(=O)[C@H](C)[C@@H](O)[C@H](C)C(=O)[C@H](C)[C@@H](O)[C@H](C)/C=C/C(=O)O[C@H]2[C@@H](C)[C@@H](CC1)O[C@@]1(CC[C@@H](C)[C@@H](C[C@H](C)O)O1)[C@@H]2C` [oligomycin A], in the assay with U-937 cells [1], the “protection from Raptinal-induced cell death” value (shortened to “protection”) is “significant to quantitative protection”.

Regarding `CC(C)[C@H](NC(=O)c1ccc2ccccc2n1)C(=O)N[C@@H](CC(=O)O)C(=O)COc1c(F)cccc1F` [Q-VD-OPh], in the assay on U-937 cells [1], the “protection” value is on record as “quantitatively blocked the loss in cell viability”.

For the molecule `O=C(CC(=O)C(F)(F)F)c1cccs1` [TTFA], the “protection” value in the assay on U-937 cells [1] is on record as “did not confer significant protection”.

In the case of `CN(NC(=O)CC(=O)NN(C)C(=S)c1ccccc1)C(=S)c1ccccc1` [Elesclomol], the “Time to 50% death” value in the assay with U-937 cells [2] (setting [7]) is greater than 36 h.

With `Cc1cc2c(C(C)C)c(O)c(O)c(C=O)c2c(O)c1-c1c(C)cc2c(C(C)C)c(O)c(O)c(C=O)c2c1O` [Gossypol], the “Time to 50% death” value in the assay with U-937 cells [2] (setting [7]) was found to be 36 h.

As for `COc1cc2c(c(OC)c1OC)-c1ccc(OC)c(=O)cc1[C@@H](NC(C)=O)CC2` [Colchicine], in the assay with U-937 cells [2], the “Time to 50% death” value turned out to be 15 h.

In the case of Antimycin A, the “protection” value with U-937 cells [1] is recorded as “significant to quantitative protection”. The “Time to 50% death” value in the assay with U-937 cells [2] (setting [7]) is greater than 36 h.

Turning to `C=C(C)[C@H]1Cc2c(ccc3c2O[C@@H]2COc4cc(OC)c(OC)cc4[C@@H]2C3=O)O1` [Rotenone], the “protection” value in the assay on U-937 cells [1] is “significant to quantitative protection”. The “Time to 50% death” value with U-937 cells [2] (setting [7]) worked out at 20 h.

Take `CC[C@]1(O)C[C@H]2CN(CCc3c([nH]c4ccccc34)[C@@](C(=O)OC)(c3cc4c(cc3OC)N(C=O)[C@H]3[C@@](O)(C(=O)OC)[C@H](OC(C)=O)[C@]5(CC)C=CCN6CC[C@]43[C@@H]65)C2)C1` [Vincristine]: the “Time to 50% death” value with U-937 cells [2] (setting [7]) amounted to 14 h.

As for `C[C@@H]1C[C@@H]([C@H](O)CC2CC(=O)NC(=O)C2)C(=O)[C@@H](C)C1` [cycloheximide], the “protection” value in the assay on U-937 cells [1] is on record as “did not prevent or delay Raptinal-induced apoptosis”.

With `C=CCc1cccc(/C=N/NC(=O)CN2CCN(Cc3ccccc3)CC2)c1O` [PAC-1], the “Time to 50% death” value with U-937 cells [2] (setting [7]) was greater than 36 h.

Regarding `Cc1cc(=O)[nH]c2c1C(=O)c1c(C)cc(=O)n(C)c1C2=O` [DNQ], in the assay on U-937 cells [2] (setting [7]), the “Time to 50% death” value was found to be 6 h.

With `N.N.[Cl][Pt][Cl]` [Cisplatin, reference compound], the “Time to 50% death” value in the assay with U-937 cells [2] (setting [7]) is greater than 36 h. Further, in assay [3], the “cell death after short treatment and washout” value is given as “do not have a similar effect”.

With `COc1cc([C@@H]2c3cc4c(cc3[C@@H](O[C@@H]3O[C@@H]5CO[C@@H](C)O[C@H]5[C@H](O)[C@H]3O)[C@H]3COC(=O)[C@H]23)OCO4)cc(OC)c1O` [Etoposide, reference compound], the “Time to 50% death” value with U-937 cells [2] (setting [7]) is 5 h. Moreover, in the assay with U-937 cells [4], the “production of reactive oxygen species (superoxide anion radicals)” value was “not”.

Regarding `O=C1C(=O)N(Cc2ccc(Cl)c(Cl)c2)c2ccccc21` [AA2], the “Time to 50% death” value with U-937 cells [2] (setting [7]) was greater than 36 h.

On to `COc1cccc2c1C(=O)c1c(O)c3c(c(O)c1C2=O)C[C@@](O)(C(=O)CO)C[C@@H]3O[C@H]1C[C@H](N)[C@H](O)[C@H](C)O1` [Doxorubicin], for which the “Time to 50% death” value with U-937 cells [2] (setting [7]) stood at 6 h.

Take `COc1[nH]c(=O)c(C(=O)[C@@H](C)C[C@H](C)[C@@H](Cl)CCl)c(O)c1OC` [atpenin A5]: the “protection” value in the assay on U-937 cells [1] is on record as “did not confer significant protection”.

In the case of `c1ccc(CN(CCN(Cc2ccccn2)Cc2ccccn2)Cc2ccccn2)nc1` [TPEN], in the assay on U-937 cells [2] (setting [7]), the “Time to 50% death” value amounted to 12 h.

Regarding `CO[C@@]12[C@H](COC(N)=O)C3=C(C(=O)C(C)=C(N)C3=O)N1C[C@@H]1N[C@@H]12` [Mitomycin C], the “Time to 50% death” value with U-937 cells [2] (setting [7]) was 20 h.

Take `CC(=O)O[C@H]1C(=O)[C@@]2(C)[C@H]([C@H](OC(=O)c3ccccc3)[C@]3(O)C[C@H](OC(=O)[C@H](O)[C@@H](NC(=O)c4ccccc4)c4ccccc4)C(C)=C1C3(C)C)[C@]1(OC(C)=O)CO[C@@H]1C[C@@H]2O` [Paclitaxel, reference compound]: the “Time to 50% death” value with U-937 cells [2] (setting [7]) turned out to be 18 h. For the same molecule, the “cell death after short treatment and washout” value in assay [3] was “do not have a similar effect”.

For the molecule `Cc1c2oc3c(C)ccc(C(=O)N[C@@H]4C(=O)N[C@H](C(C)C)C(=O)N5CCC[C@H]5C(=O)N(C)CC(=O)N(C)[C@@H](C(C)C)C(=O)O[C@@H]4C)c3nc-2c(C(=O)N[C@@H]2C(=O)N[C@H](C(C)C)C(=O)N3CCC[C@H]3C(=O)N(C)CC(=O)N(C)[C@@H](C(C)C)C(=O)O[C@@H]2C)c(N)c1=O` [actinomycin D] (I: T[dV]P[Sar][NMeV] / II: T[dV]P[Sar][NMeV]; ester I:1-I:C, II:1-II:C; linker I:N-II:N via Actinocin(9to1)), the “protection” value with U-937 cells [1] is reported as “did not prevent or delay Raptinal-induced apoptosis”.

With `CCOC(=O)C1=C(N)Oc2ccc(Br)cc2C1C(C#N)C(=O)OCC` (stereo not shown) [HA-141], in the assay with U-937 cells [2] (setting [7]), the “Time to 50% death” value is greater than 36 h.

`N#CC(C#N)=NNc1ccc(OC(F)(F)F)cc1` [FCCP]: the “protection” value in the assay with U-937 cells [1] is recorded as “significant to quantitative protection”.

Consider `CO[C@H]1C[C@@H]2CC[C@@H](C)[C@@](O)(O2)C(=O)C(=O)N2CCCC[C@H]2C(=O)O[C@H]([C@H](C)C[C@@H]2CC[C@@H](O)[C@H](OC)C2)CC(=O)[C@H](C)/C=C(\C)[C@@H](O)[C@@H](OC)C(=O)[C@H](C)C[C@H](C)/C=C/C=C/C=C/1C` [Rapamycin], for which the “Time to 50% death” value in the assay on U-937 cells [2] (setting [7]) was greater than 36 h.

For the molecule `COC1=C2C[C@@H](C)C[C@H](OC)[C@H](O)[C@@H](C)/C=C(\C)[C@H](OC(N)=O)[C@@H](OC)/C=C\C=C(/C)C(=O)NC(=CC1=O)C2=O` [Geldanamycin], the “Time to 50% death” value in the assay with U-937 cells [2] (setting [7]) is greater than 36 h.

`CN[C@@H](C)C(=O)N[C@H]1CCCC[C@H]2CC[C@@H](C(=O)N[C@@H](c3ccccc3)c3cn(CCCCc4ccc(CCCCn5cc([C@@H](NC(=O)[C@@H]6CC[C@@H]7CCCC[C@H](NC(=O)[C@H](C)NC)C(=O)N76)c6ccccc6)nn5)cc4)nn3)N2C1=O` [SM-164]: the “Time to 50% death” value in the assay with U-937 cells [2] (setting [7]) is greater than 36 h.

`CN[C@@H]1C[C@H]2O[C@@](C)([C@@H]1OC)n1c3ccccc3c3c4c(c5c6ccccc6n2c5c31)C(=O)NC4` [Staurosporine]: the “time of apoptotic death” value was 6 to 12 h with U-937 cells [2] (U-937 cells, 10 μM (FIG. 1F)) and greater than 24 h in assay [5]. Further, in the assay on U-937 cells [2] (setting [7]), the “Time to 50% death” value came to 5 h.

In the case of `O=S(=O)(O)c1cc(N=C=S)ccc1C=Cc1ccc(N=C=S)cc1S(=O)(=O)O` [DIDS], the “protection” value in the assay on U-937 cells [1] is on record as “significant protection”.

On to `C/C=C(/C)C(=O)O[C@H]1C(C)=C2[C@H]([C@@H]1OC(=O)CCCCCCC)[C@@](C)(OC(C)=O)C[C@H](OC(=O)CCC)[C@@]1(O)[C@H]2OC(=O)[C@@]1(C)O` [Thapsigargin, reference compound], for which the “Time to 50% death” value in the assay with U-937 cells [2] (setting [7]) was found to be 14 h. In addition, the “production of reactive oxygen species (superoxide anion radicals)” value with U-937 cells [4] is given as “rapid accumulation of superoxide anion radicals”.

Regarding Tunicamycin, the “Time to 50% death” value with U-937 cells [2] (setting [7]) stood at 24 h.

As to `CC[C@@]1(O)C(=O)OCc2c1cc1n(c2=O)Cc2cc3ccccc3nc2-1` [Camptothecin], the “Time to 50% death” value with U-937 cells [2] (setting [7]) amounted to 5 h.

B1: Bid: known pro-apoptotic protein; full-length recombinant Bid from R&D Systems (protein, UniProt P55957 1-195, looked up)
chain: MDCEVNNGSSLRDECITNLLVFGFLQSCSDNSFRRELDALGHELPVLAPQWEGYDELQTDGNRSSHSRLGRIEADSESQEDIIRNIARHLAQVGDSMDRSIPPGLVNGLALQLRNTSRSEEDRNRDLATALEQLLQAYPRDMEKEKTMLVLALLLAKKVASHTPSLLRDVFHTTVNFINQNLRTYVRSLARNGMD
modifications: full-length
notes: known pro-apoptotic protein; full-length recombinant Bid from R&D Systems
Regarding B1, the “cytochrome c release from isolated mitochondria” value in assay [6] is listed as “able to induce cytochrome c release; also recorded: capable of releasing cytochrome c under both conditions”.

The values are drawn from patent US9682060B2, “Small molecules that induce intrinsic pathway apoptosis” (The Board of Trustees of the University of Illinois, priority 2015, dated 2017).
